According to publication PMC10281575, “PfCRT mutations conferring piperaquine resistance in falciparum malaria shape the kinetics of quinoline drug binding and transport” (PLOS Pathogens, 2023):
Where “and” joins values, the source holds several entries; their conditions need not be identical. Equal values may be shown once. Read-outs that look alike come from different tables or passages of the source.

Molecular target: T1, PfCRT^Dd2 (Plasmodium falciparum, UniProt Q8IBZ9, A220S/I356T/K76T/M74I/N326S/N75E/Q271E/R371I)
T1 sequence (Q8IBZ9 1-424 M74I/N75E/K76T/A220S/Q271E/N326S/I356T/R371I): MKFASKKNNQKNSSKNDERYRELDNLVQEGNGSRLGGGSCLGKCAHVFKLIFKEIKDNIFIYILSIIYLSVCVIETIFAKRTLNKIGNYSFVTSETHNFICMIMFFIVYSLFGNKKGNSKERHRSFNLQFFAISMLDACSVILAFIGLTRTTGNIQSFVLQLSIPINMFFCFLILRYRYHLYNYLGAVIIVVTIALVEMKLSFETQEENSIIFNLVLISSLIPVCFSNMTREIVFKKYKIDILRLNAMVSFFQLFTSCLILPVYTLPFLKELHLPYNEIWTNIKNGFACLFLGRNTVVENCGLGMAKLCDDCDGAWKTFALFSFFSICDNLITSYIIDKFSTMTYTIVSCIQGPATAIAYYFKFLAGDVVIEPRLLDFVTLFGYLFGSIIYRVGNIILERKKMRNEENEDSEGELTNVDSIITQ
Test: Competition kinetics of drug transport (radiolabeled substrate plus cold inhibitor), PfCRT^Dd2-expressing oocytes
Type: cell-based
Set-up: expressed in transfected cells; host or cells: Xenopus laevis oocytes injected with in vitro transcribed RNA (pSP64T)
Conditions: for PfCRTDd2-mediated CQ transport 500 µM CQ: single replicates; for Vmax, maximal velocity of drug transport: global fit; for β, partiality factor: factor on transport of the labeled drug by the other drug
Experimental: The experimental procedure and the data analysis were as described above.
The difference between the two models lies in the value of α, a parameter describing how much the affinity for the substrate changes when the inhibitor is already bound, and vice versa. […] The resulting Vmax,app values and the Vmax,app/KM,app ratios were plotted as a function of the inhibitor concentration (Fig 5A).
Drug transport assays were performed as previously described. Briefly, measurements of radiolabeled drug uptake were made over 1 h, unless otherwise specified. […] Where specified, one or more unlabeled drugs were also present at the indicated concentrations. […] The uptake assays were terminated by removing the oocytes from the reaction medium and washing them three times with 2 mL of ice-cold ND96 buffer. Each oocyte was transferred to a separate scintillation vial and lysed by the addition of 200 μL of a 5% SDS solution. The radioactivity in the sample was measured using a liquid scintillation analyser Tri-Carb 4910 TR (PerkinElmer). Water-injected oocytes were analyzed in parallel as a negative control. The buffer from each condition was measured in duplicate in parallel to each experiment to transform counts per minute into pmol of drug. Drug uptake attributable to PfCRT was determined by subtracting the background uptake from water-injected oocytes from that of PfCRT-expressing oocytes. In all cases, at least three independent experiments were performed on oocytes from different frogs, and for each condition in an experiment, measurements were made from 10 oocytes per treatment.
The following equations were adopted from Segel (1993), and the reader is referred to that text for the assumptions made in the author’s approach in the derivation of each equation [31]. The concentration of substrate is denoted as [S1] and the concentration of the inhibiting substrate is denoted as [S2]. KS1 and KS2 are the dissociation constants for the respective substrate-protein complexes.
Analyses of the kinetic data were performed using SigmaPlot version 13.0 and Python. The drug competition models were globally fit to the kinetic data using the least-squares method and ranked according to their corrected Akaike information criterion difference (ΔAICC) and their Akaike weight, using Python. The two top-ranked models were compared using an F-test.
This factor reflects how much the affinity of the transporter for one drug changes when the other drug is already bound in the protein cavity. In the former model, α > 0 and α ≠ 1. In the latter model, it could be thought of as if α = 1. Because of this, discriminating between the two models also means determining the value of α. In Mixed-type (Partial) inhibition, the apparent maximal velocity (Vmax,app) is given by Eq 22, Vmax,app=Vmax(1+β[S2]/αKS2)/(1+[S2]/αKS2) (Eq 22)
Vmax,app is the maximal rate of substrate transport at a certain inhibitor concentration. The half-maximal inhibitory concentration is given by the term in the denominator different from [S2], which in this case is αKS2. This means that by plotting Vmax,app as a function of [S2], the value of αKS2 can be derived after fitting the curve to Eq 23.
The half-maximal inhibitory concentration derived from this hyperbolic equation is equal to KS2. By plotting Vmax,app/KM,app as a function of [S2], one can derive KS2 after fitting the curve to Eq 25. The value of α can then be calculated dividing αKS2 by KS2.

In the case of `CCN(CC)CCCC(C)Nc1ccnc2cc(Cl)ccc12` (stereo not shown) [CQ, chloroquine], the “PfCRTDd2-mediated CQ transport 500 µM CQ” value (0 µM PPQ) is reported as 25.01 pmol oocyte-1 h-1 and 21.69 pmol oocyte-1 h-1 and 19.19 pmol oocyte-1 h-1 and 20.87 pmol oocyte-1 h-1, the “PfCRTDd2-mediated CQ transport 500 µM CQ” value (50 µM PPQ) is reported as 19.01 pmol oocyte-1 h-1 and 16.61 pmol oocyte-1 h-1 and 18.59 pmol oocyte-1 h-1 and the “PfCRTDd2-mediated CQ transport 500 µM CQ” value (125 µM PPQ) is reported as 18.10 pmol oocyte-1 h-1 and 16.11 pmol oocyte-1 h-1 and 15.06 pmol oocyte-1 h-1. The “PfCRTDd2-mediated CQ transport 500 µM CQ” value (200 µM PPQ) was 12.71 pmol oocyte-1 h-1 and 15.12 pmol oocyte-1 h-1 and 13.60 pmol oocyte-1 h-1, the “PfCRTDd2-mediated CQ transport 500 µM CQ” value (350 µM PPQ) was 12.41 pmol oocyte-1 h-1 and 14.97 pmol oocyte-1 h-1 and 10.99 pmol oocyte-1 h-1 and the “PfCRTDd2-mediated CQ transport 500 µM CQ” value (500 µM PPQ) was 15.66 pmol oocyte-1 h-1 and 9.12 pmol oocyte-1 h-1 and 11.85 pmol oocyte-1 h-1. The “most plausible inhibition model” value (16 models, ΔAICC, Akaike weight, F-test, label = cold inhibitor of the other drug's transport) was “partial noncompetitive inhibition”, the “Vmax, maximal velocity of drug transport” value (Mixed (Partial) model, drug as radiolabeled substrate) was 33 ± 1 pmol oocyte^-1 h^-1 and the Kd (Mixed (Partial) model, drug as cold inhibitor, read-out: KS, dissociation constant for the PfCRT-substrate complex) was 210 ± 80 µM. The Kd (Mixed (Partial) model, drug as radiolabeled substrate, read-out: KS, dissociation constant for the PfCRT-substrate complex) was 260 ± 25 µM, the “β, partiality factor” value (Mixed (Partial) model) was 0.38 ± 0.06 and the “α, KS interaction factor” value (Mixed (Partial) model, label = radiolabeled substrate, other drug cold inhibitor) was 1.0 ± 0.2. The “Vmax, maximal velocity of drug transport” value (Noncompetitive (Partial) model, drug as radiolabeled substrate, other drug as cold inhibitor) was 32 pmol oocyte^-1 h^-1 and 32 ± 1 pmol oocyte^-1 h^-1, the Kd (Noncompetitive (Partial) model, drug as cold inhibitor, read-out: KS, dissociation constant for the PfCRT-substrate complex) was 238 µM and 240 µM and the Kd (Noncompetitive (Partial) model, drug as radiolabeled substrate, read-out: KS, dissociation constant for the PfCRT-substrate complex) was 254 µM and 250 µM. The “β, partiality factor” value (Noncompetitive (Partial) model) was 0.38 and 0.38 ± 0.04, the “KMapp ([3H]CQ + PPQ)” value ([PPQ] 0 µM) was 257.93 µM and the “Vmaxapp ([3H]CQ + PPQ)” value ([PPQ] 0 µM) was 32.70 pmol oocyte-1 h-1. For the same compound, the “Vmaxapp/KMapp ([3H]CQ + PPQ)” value ([PPQ] 0 µM) was 0.1268 h⁻¹, the “KMapp ([3H]CQ + PPQ)” value ([PPQ] 50 µM) was 250.37 µM and the “Vmaxapp ([3H]CQ + PPQ)” value ([PPQ] 50 µM) was 27.98 pmol oocyte-1 h-1. The “Vmaxapp/KMapp ([3H]CQ + PPQ)” value ([PPQ] 50 µM) was 0.1117 h⁻¹, the “KMapp ([3H]CQ + PPQ)” value ([PPQ] 125 µM) was 258.31 µM and the “Vmaxapp ([3H]CQ + PPQ)” value ([PPQ] 125 µM) was 25.60 pmol oocyte-1 h-1. For the same compound, the “Vmaxapp/KMapp ([3H]CQ + PPQ)” value ([PPQ] 125 µM) was 0.0991 h⁻¹, the “KMapp ([3H]CQ + PPQ)” value ([PPQ] 200 µM) was 254.40 µM and the “Vmaxapp ([3H]CQ + PPQ)” value ([PPQ] 200 µM) was 21.83 pmol oocyte-1 h-1. The “Vmaxapp/KMapp ([3H]CQ + PPQ)” value ([PPQ] 200 µM) was 0.0858 h⁻¹, the “KMapp ([3H]CQ + PPQ)” value ([PPQ] 350 µM) was 250.34 µM and the “Vmaxapp ([3H]CQ + PPQ)” value ([PPQ] 350 µM) was 19.75 pmol oocyte-1 h-1. The “Vmaxapp/KMapp ([3H]CQ + PPQ)” value ([PPQ] 350 µM) was 0.0789 h⁻¹, the “KMapp ([3H]CQ + PPQ)” value ([PPQ] 500 µM) was 247.83 µM and the “Vmaxapp ([3H]CQ + PPQ)” value ([PPQ] 500 µM) was 17.90 pmol oocyte-1 h-1. For the same compound, the “Vmaxapp/KMapp ([3H]CQ + PPQ)” value ([PPQ] 500 µM) was 0.0722 h⁻¹, the “β^CQ, partiality factor” value (fractional velocity plot, factor by which PPQ slows down CQ transport) was 0.35 ± 0.06 and the Kd (secondary plot, half-maximum inhibitory concentration of Vmax,app versus inhibitor concentration, read-out: αKS, dissociation constant between the drug and the PfCRT complex with the other drug) was 220 ± 85 µM. The “α (αKS divided by KS)” value (secondary plots, label = prebound drug) was 1.0 ± 0.3.
